Source: US20030109523A1, “Bicyclic antagonists selective for the alphavbeta3 integrin” (Wyeth, priority 1999, published 2003)
Marks after values point to notes of the source that are not given here. Each block holds one compound with its values, some of them ahead of it.

How the values were obtained:
αVβ3 integrin = biological target: T1, αVβ3 integrin (Homo sapiens, UniProt P05106+P06756); assay: Osteopontin-αVβ3 Cell Attachment Test Procedure; assay type: cell-based; conditions: for IC50: attachment of cells to osteopontin, read-out: (αVβ3) IC50 CELL ATTACHMENT; for remaining activity at 20 µM / remaining activity at 100 µM: % of maximal attachment, read-out: (αVβ3) CELL ATTACHMENT, % @ concentration
T1 construct: αVβ3-expressing cell lines are maintained by standard tissue culture techniques; endogenous in cells; host or cells: αVβ3-expressing cell lines
Method in brief: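 Cells expressing αVβ3 (10^6 cells/mL) added with test compound to osteopontin-coated, 1% BSA-blocked wells in triplicate; 1.5 h at 25° C. Attached cells quantified by MTT dye conversion (overnight, 37° C.); optical density expressed as % of maximal attachment minus uncoated-well background, mean ±SD.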

[1] = test system: thyro-parathyroidectomized (TPTX) rats; assay: PTH-induced Hypercalcemia of Thyro-parathyroidectomized Male Rats; assay type: in vivo, rat; conditions: for Change in Serum Calcium after 3 hours / Change in Serum Calcium after 6 hours: Table V, TPTX male rats, rPTH(1-34) 0.45 μg/kg/hr, Example 37 100 mg/kg, s.c.
Excerpt: Effects of Test Compounds on PTH-induced Hypercalcemia of Thyro-parathyroidectomized Male Rats. Male thyro-parathyroidectomized (TPTX) rats (Charles River) were randomly assigned to groups of 7 rats/group. […] For evaluation of prophylactic effects of a test drug, another minipump with appropriate concentration of the test drug solution was implanted subcutaneously at a site away from PTH minipump or implanted as a pellet of the test compound away from the PTH minipump. Alternatively, test drugs were administered by oral gavage as a solution or uniform suspension in an appropriate medium depending on the physical properties of the test compound. A group of 7 unimplanted TPTX rats was set aside as a normal control group.

αIIbβ3 integrin = biological target: T2, αIIbβ3 integrin (Homo sapiens, UniProt P05106+P08514); assay: ADP-Induced Platelet Aggregation; assay type: cell-based; conditions: Table VII; for IC50: ADP 20 uM, human platelets, read-out: Platelet Aggregation αIIbβ3 IC50; for remaining activity at 200 µM: percent of maximal aggregation
T2 construct: Human Platelets: Platelet-enriched plasma was obtained commercially from a donor pool; from tissue; host or cells: human platelet-rich plasma from a commercial donor pool
Method in brief: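 Pooled human PRP ([…]) preincubated with compound (1% vehicle) 5 min at 37° C with stirring, then stimulated with 20 uM ADP. Light transmittance followed 5 min against PPP reference; maximal aggregation expressed as % of vehicle control, mean ± SD.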

[2] = biological target: T3, Vitronectin Receptor (αVβ3) (Homo sapiens, UniProt P05106+P06756); assay: Vitronectin Receptor (αVβ3) Binding Test Procedure; conditions: for IC50: read-out: (αVβ3) IC50 RECEPTOR BINDING; for remaining activity at 30 µM: % Max = percentage of the specific binding, read-out: (αVβ3) RECEPTOR BINDING, % @ concentration
T3 construct: expressed in transfected cells; host or cells: 512P5 cells (plasma membrane preparation)

osteoclasts = assay: Osteoclast Bone Pitting; assay type: cell-based, rat
Method in brief: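 Osteoclasts on bone slices at an acidic pH promoting resorption; slices fixed, osteoclasts counted after TRAP staining, cells stripped by sonication in 0.25M NH4OH and toluidine blue-stained pits counted manually. Block design, three replicate slices per treatment per animal; IC50 from dose-response curves.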

T1 sequence (P06756 31-889 limits assumed): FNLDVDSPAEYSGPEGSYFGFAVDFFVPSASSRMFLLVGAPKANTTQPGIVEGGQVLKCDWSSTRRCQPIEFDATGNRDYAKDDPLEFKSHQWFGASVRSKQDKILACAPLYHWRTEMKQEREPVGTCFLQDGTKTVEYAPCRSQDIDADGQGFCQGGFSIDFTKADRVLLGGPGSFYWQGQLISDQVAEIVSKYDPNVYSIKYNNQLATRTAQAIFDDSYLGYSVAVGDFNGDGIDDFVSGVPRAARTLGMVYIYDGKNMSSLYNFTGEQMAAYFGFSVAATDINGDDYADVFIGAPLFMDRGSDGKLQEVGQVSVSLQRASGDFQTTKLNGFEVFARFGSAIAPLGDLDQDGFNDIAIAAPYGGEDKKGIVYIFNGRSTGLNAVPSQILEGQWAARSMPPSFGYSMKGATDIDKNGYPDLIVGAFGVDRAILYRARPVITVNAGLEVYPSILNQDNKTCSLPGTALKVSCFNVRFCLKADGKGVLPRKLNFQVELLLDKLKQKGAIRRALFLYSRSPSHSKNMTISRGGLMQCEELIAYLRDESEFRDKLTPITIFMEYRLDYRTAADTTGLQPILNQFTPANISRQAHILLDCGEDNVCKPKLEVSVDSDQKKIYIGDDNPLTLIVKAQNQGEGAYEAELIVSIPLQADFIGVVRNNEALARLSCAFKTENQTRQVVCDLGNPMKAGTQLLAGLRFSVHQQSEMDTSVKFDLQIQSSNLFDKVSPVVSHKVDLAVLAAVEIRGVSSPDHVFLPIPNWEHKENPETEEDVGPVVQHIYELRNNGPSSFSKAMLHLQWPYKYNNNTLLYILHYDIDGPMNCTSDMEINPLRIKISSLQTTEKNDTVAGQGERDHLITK
T1 sequence (P06756 891-1048 partner limits assumed): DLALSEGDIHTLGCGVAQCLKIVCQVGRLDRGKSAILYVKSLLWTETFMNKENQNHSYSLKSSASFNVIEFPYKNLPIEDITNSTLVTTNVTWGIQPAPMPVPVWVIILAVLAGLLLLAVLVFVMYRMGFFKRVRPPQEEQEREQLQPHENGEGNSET
T1 sequence (P05106 27-788): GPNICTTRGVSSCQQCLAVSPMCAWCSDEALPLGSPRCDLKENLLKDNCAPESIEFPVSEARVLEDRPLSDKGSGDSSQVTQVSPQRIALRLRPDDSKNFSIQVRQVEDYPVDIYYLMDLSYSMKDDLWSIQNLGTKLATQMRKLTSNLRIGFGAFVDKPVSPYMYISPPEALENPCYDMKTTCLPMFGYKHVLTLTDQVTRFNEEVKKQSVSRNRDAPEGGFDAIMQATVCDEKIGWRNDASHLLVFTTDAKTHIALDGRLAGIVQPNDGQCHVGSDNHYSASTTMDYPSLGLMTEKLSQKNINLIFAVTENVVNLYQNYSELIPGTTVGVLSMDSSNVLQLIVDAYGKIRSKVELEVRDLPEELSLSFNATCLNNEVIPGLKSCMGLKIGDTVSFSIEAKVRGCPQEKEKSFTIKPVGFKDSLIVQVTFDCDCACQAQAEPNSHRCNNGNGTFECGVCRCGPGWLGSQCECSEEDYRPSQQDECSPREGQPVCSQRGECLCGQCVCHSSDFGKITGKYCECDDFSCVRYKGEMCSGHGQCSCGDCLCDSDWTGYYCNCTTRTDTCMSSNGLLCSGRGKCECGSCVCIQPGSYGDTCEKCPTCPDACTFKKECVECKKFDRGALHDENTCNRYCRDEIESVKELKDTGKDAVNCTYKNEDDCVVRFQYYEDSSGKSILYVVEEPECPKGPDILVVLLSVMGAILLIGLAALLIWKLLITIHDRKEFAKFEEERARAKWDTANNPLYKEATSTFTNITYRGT
T3 sequence (P06756 31-889 limits assumed): as the sequence (P06756 31-889 limits assumed) above
T3 sequence (P06756 891-1048 partner limits assumed): as the sequence (P06756 891-1048 partner limits assumed) above
T3 sequence (P05106 27-788): as the sequence (P05106 27-788) above
T2 sequence (P08514 32-887 limits assumed): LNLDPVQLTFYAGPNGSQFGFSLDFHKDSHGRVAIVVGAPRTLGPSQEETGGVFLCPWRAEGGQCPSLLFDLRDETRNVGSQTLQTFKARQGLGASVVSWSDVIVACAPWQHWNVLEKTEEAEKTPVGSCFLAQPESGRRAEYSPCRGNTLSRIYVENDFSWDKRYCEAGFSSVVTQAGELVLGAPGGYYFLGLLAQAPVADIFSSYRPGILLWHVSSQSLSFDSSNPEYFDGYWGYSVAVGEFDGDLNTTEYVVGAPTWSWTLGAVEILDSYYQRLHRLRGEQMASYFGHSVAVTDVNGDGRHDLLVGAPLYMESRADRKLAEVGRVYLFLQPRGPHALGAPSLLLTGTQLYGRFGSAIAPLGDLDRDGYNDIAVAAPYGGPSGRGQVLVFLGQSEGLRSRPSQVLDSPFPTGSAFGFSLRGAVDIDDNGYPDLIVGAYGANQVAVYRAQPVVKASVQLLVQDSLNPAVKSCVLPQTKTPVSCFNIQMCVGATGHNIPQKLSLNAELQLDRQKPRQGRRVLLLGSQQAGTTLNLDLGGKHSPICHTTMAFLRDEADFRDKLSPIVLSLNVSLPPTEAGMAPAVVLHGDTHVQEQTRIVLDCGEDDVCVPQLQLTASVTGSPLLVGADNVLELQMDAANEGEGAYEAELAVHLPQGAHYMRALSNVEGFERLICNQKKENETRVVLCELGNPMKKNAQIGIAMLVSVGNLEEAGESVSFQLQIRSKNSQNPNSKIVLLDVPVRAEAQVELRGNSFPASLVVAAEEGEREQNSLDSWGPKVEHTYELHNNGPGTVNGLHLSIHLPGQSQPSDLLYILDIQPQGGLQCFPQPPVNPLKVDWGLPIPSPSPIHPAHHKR
T2 sequence (P08514 891-1039 partner limits assumed): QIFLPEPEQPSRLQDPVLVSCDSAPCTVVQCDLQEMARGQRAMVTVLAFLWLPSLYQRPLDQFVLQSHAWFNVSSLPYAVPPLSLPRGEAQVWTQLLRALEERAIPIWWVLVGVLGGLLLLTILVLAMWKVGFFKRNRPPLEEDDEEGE
T2 sequence (P05106 27-788): as the sequence (P05106 27-788) above

Compound: N=C(N)NCCCOc1ccc2c(c1)CCC(CC(=O)O)C2.O=C(O)C(F)(F)F (centres unmarked) [Example 37, [6-(3-Guanidino-propoxy)-1,2,3,4-tetrahydro-napthalen-2-yl]-acetic Acid Trifluoroacetate]
- IC50 (αVβ3 integrin): 8.9 µM
- Change in Serum Calcium after 3 hours ([1]; 1st column pair): 1.72 mg/dL
- Change in Serum Calcium after 6 hours ([1]; 1st column pair): 2.22 mg/dL
- Change in Serum Calcium after 3 hours ([1]; 2nd column pair): 0.97 mg/dL
- Change in Serum Calcium after 6 hours ([1]; 2nd column pair): 2.21 mg/dL
- Change in Serum Calcium after 3 hours ([1]; 3rd column pair): 0.95 mg/dL
- Change in Serum Calcium after 6 hours ([1]; 3rd column pair): 1.80 mg/dL
- Change in Serum Calcium after 3 hours ([1]; 4th column pair): 1.31 mg/dL
- Change in Serum Calcium after 6 hours ([1]; 4th column pair): 1.63 mg/dL
- IC50 (αIIbβ3 integrin): 82.4 µM
- IC50 [2]: 2.9 µM
- BONE PITTING INHIBITION (osteoclasts; @ 238 μM): 30% @ 238

- remaining activity at 20 µM (αVβ3 integrin): 104%
- remaining activity at 100 µM (αVβ3 integrin): 108%
- IC50 (αIIbβ3 integrin): 54 µM
- remaining activity at 30 µM [2]: 100%
- melting point: 168 to 172 °C
Compound: N=C(N)NCCCOc1ccc2c(c1)CC(CCC(=O)O)C(=O)N2 (centres unmarked) [Example 223, 3-[6-(3-Guanidino-propoxy)-2-oxo-1,2,3,4-tetrahydro-quinolin-3-yl]-propionic Acid]
- inhibition at 226 µM (osteoclasts; Rattus norvegicus, Osteoclast, @ 226 μM): -72%

Compound: N=C(N)NCCCCOc1ccc2c(c1)CC(CCC(=O)O)C(=O)N2 (centres unmarked) [Example 224, 3-[6-(4-Guanidino-butoxy)-2-oxo-1,2,3,4-tetrahydro-quinolin-3-yl]-propionic Acid]
- remaining activity at 20 µM (αVβ3 integrin): 100%
- IC50 (αIIbβ3 integrin): 53 µM
- remaining activity at 30 µM [2]: 100%
- inhibition at 216 µM (osteoclasts; Rattus norvegicus, Osteoclast, @ 216 μM): -62%
- melting point: 152 to 155 °C

Compound: Cyclo(-Arg-Gly-Asp-D-Phe-Val)
- Change in Serum Calcium (mg/dL) ([1]; Table III, TPTX rat, 100 mg/kg.sc): −0.90 + 0.28 mg/dL
- Change in Serum Calcium after 3 hours ([1]; 1st column pair): 0.69 mg/dL
- Change in Serum Calcium after 6 hours ([1]; 1st column pair): 1.20* mg/dl
- Change in Serum Calcium after 3 hours ([1]; 2nd column pair): 0.58** mg/dl
- Change in Serum Calcium after 6 hours ([1]; 2nd column pair): 1.44* mg/dl
- Change in Serum Calcium after 3 hours ([1]; 3rd column pair): 0.01** mg/dl
- Change in Serum Calcium after 6 hours ([1]; 3rd column pair): 0.63 mg/dL
- Change in Serum Calcium after 3 hours ([1]; 4th column pair): 0.51** mg/dl
- Change in Serum Calcium after 6 hours ([1]; 4th column pair): 1.07 mg/dL

- IC50 (αVβ3 integrin): 21.1 µM
- remaining activity at 200 µM (αIIbβ3 integrin): 80.9%
- IC50 [2]: 7.3 µM
- melting point: 227 to 229 °C
Compound: Cl.N=C(N)NCCCOc1ccc2c(c1)NC(=O)C(CC(=O)O)C2 (centres unmarked) [Example 86, [7-(3-Guanidino-propoxy)-2-oxo-1,2,3,4-tetrahydro-quinolin-3-yl]-acetic Acid Hydrochloride]
- inhibition at 280 µM (osteoclasts; Rattus norvegicus, Osteoclast, @ 280 μM): 70%

- remaining activity at 100 µM (αVβ3 integrin): 85%
- remaining activity at 200 µM (αIIbβ3 integrin): 74.3%
- remaining activity at 30 µM [2]: 100%
- melting point: 151 to 155 °C
Compound: N=C(N)NCCCOc1cccc2c1NC(=O)C(CC(=O)O)C2 (centres unmarked) [Example 234, [8-(3-Guanidino-propoxy)-2-oxo-1,2,3,4-tetrahydro-quinolin-3-yl]-acetic Acid]
- inhibition at 230 µM (osteoclasts; Rattus norvegicus, Osteoclast, @ 230 μM): 8%

Compound: N=C(N)NCCCCCc1ccc2c(c1)NC(=O)C(CC(=O)O)C2.O=C(O)C(F)(F)F (centres unmarked) [Example 122, [7-(5-Guanidino-pentyl)-2-oxo-1,2,3,4-tetrahydro-quinolin-3-yl]-acetic Acid Trifluoroacetate]
- IC50 (αVβ3 integrin): 8.3 µM
- IC50 (αIIbβ3 integrin): 57 µM
- IC50 [2]: 3.6 µM
- IC50 (osteoclasts; Rattus norvegicus, Osteoclast, read-out: BONE PITTING INHIBITION IC50): 159 µM
- melting point: 148 to 151 °C
